Measurements published in US8273782B2, “Inhibitors of Akt activity” (GlaxoSmithKline LLC, priority 2007, dated 2012).

Experiments:
full length AKT1 = target: T1, full length AKT1 (Homo sapiens, UniProt P31749); assay: AKT enzyme assay (substrate phosphorylation, SPA), full length AKT1; assay type: biochemical; conditions: in at least one experimental run; pIC50 = -log(IC50), IC50 in molar units
T1 construct: Full-length human AKT1 gene was amplified by PCR; His tag (from vector pFastbacHTb; N-terminal position is own knowledge of the vector) (N); made in house; host or cells: baculovirus; Sf9 / T. ni insect cells
T1 sequence (P31749 whole entry): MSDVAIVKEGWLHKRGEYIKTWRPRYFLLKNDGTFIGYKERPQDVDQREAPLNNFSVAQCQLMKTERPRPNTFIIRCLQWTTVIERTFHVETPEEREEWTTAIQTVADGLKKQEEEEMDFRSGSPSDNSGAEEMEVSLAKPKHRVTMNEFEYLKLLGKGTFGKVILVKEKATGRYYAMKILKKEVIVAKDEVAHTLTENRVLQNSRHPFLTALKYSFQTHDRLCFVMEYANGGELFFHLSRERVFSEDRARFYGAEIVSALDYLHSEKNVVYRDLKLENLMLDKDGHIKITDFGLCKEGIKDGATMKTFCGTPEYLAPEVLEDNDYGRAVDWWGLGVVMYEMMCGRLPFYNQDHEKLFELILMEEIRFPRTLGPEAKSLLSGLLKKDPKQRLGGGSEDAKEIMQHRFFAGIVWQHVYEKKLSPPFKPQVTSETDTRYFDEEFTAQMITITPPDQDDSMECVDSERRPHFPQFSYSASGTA

full length AKT3 = target: T2, full length AKT3 (Homo sapiens, UniProt Q9Y243); assay: AKT enzyme assay (substrate phosphorylation, SPA), full length AKT3; assay type: biochemical; conditions: in at least one experimental run; pIC50 = -log(IC50), IC50 in molar units
T2 construct: Full length AKT2 and full length AKT3 were cloned, expressed and purified in a similar fashion; His tag (inferred: made in a similar fashion to AKT1 in pFastbacHTb with nickel purification) (N); made in house; host or cells: baculovirus; insect cells (by analogy with AKT1)
T2 sequence (Q9Y243 whole entry): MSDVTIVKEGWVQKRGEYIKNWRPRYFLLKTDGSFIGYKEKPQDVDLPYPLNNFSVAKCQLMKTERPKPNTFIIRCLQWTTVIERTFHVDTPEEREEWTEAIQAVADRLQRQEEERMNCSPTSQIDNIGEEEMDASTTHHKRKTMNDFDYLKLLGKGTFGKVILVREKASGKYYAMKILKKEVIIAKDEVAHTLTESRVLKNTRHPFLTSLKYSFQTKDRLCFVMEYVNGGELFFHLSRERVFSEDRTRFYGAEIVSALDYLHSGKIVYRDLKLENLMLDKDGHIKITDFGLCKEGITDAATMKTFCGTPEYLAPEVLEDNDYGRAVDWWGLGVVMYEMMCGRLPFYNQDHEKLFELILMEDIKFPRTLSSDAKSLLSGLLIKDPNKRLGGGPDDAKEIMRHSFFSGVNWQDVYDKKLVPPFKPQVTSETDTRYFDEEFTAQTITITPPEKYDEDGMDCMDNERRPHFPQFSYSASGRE
Protocol: Compounds of the present invention are tested for AKT 1, 2, and 3 protein serine kinase inhibitory activity in substrate phosphorylation assays. This assay examines the ability of small molecule organic compounds to inhibit the serine phosphorylation of a peptide substrate. […] AKT 1, 2 and 3 are also commercially available from Upstate USA, Inc. The method measures the ability of the isolated enzyme to catalyze the transfer of the gamma-phosphate from ATP onto the serine residue of a biotinylated synthetic peptide SEQ. […] Substrate phosphorylation is detected by the following procedure:
ATP/well, 1 mM CHAPS, 2 mM DTT, and 1 ul of test compound in 100% DMSO. The reaction is stopped by the addition of 50 ul SPA bead mix (Dulbecco's PBS without Mg^2+ and Ca^2+, 0.1% Triton X-100, 5 mM EDTA, 50 uM ATP, 2.5 mg/ml Streptavidin-coated SPA beads.) The plate is sealed, the beads are allowed to settle overnight, and then the plate is counted in a Packard Topcount Microplate Scintillation Counter (Packard Instrument Co., Meriden, Conn.).
The data for dose responses are plotted as % Control calculated with the data reduction formula 100*(U1−C2)/(C1−C2) versus concentration of compound where U is the unknown value, C1 is the average control value obtained for DMSO, and C2 is the average control value obtained for 0.1M EDTA. […]

| SMILES | pIC50 value against full length AKT1 (full length AKT1) | pIC50 value against full length AKT3 (full length AKT3) |
| --- | --- | --- |
| Cc1sc(C(=O)N[C@H](CN)Cc2cccc(F)c2)cc1-c1c(Cl)cnn1C [Example 161, N-{(1S)-2-amino-1-[(3-fluorophenyl)methyl]ethyl}-4-(4-chloro-1-methyl-1H-pyrazol-5-yl)-5-methyl-2-thiophenecarboxamide] | 8.8 | 7.6 |
| Cn1ncc(Cl)c1-c1cc(C(=O)N[C@H](CN)Cc2cccc(F)c2)oc1Cl [Example 137, N-{(1S)-2-amino-1-[(3-fluorophenyl)methyl]ethyl}-5-chloro-4-(4-chloro-1-methyl-1H-pyrazol-5-yl)-2-furancarboxamide] | 9.0 | 8.4 |
